In paper PMC8719067 (Haematologica, 2021):

Assays:
[1] = tested on: MEC-1 cells overexpressing BTKWT; assay: reverse-phase protein array; conditions: RPPA; for decrease in phospho-ERK: BTKWT cells
[2] = tested on: MEC-1 cells with either wild-type or mutant BTK; assay: reverse-phase protein array; conditions: RPPA
MEC-1 cells [3] = assay: cell death; assay type: cell-based; conditions: MEC-1, 1, 24 hours
MEC-1 cells [4] = assay: cell cycle profile; assay type: cell-based; conditions: MEC-1, 24 hours
[5] = tested on: B-cell lines or primary CLL cells; conditions: cited from earlier work
[6] = tested on: chronic lymphocytic leukemia; conditions: patients with CLL, median of 3.4 years of follow-up; cited from earlier work
[7] = tested on: BCR pathway in primary CLL cells; assay: immunoblot of BCR pathway proteins in primary CLL cells; assay type: cell-based, human; conditions: BTKWT and BTKT474F (gate-keeper mutation)
[8] = tested on: PLCg2 phosphorylation in Ramos Burkitt lymphoma cells; assay: phospho-PLCg2 inhibition in the Ramos cell line; assay type: cell-based; conditions: Homo sapiens, read-out: IC50 of inhibition of PLCg2 phosphorylation
B-cell malignancies = conditions: phase 1b clinical trial; cited from earlier work

SMILES	decrease in phospho-ERK [1]	decrease in PD1 levels (ibrutinib vs vecabrutinib) [2]	cell death (MEC-1 cells [3])	cell cycle profiles (MEC-1 cells [4])	cell death induced in vitro [5]	cumulative incidence of progression [6]	BCR pathway (phosphorylation of BTK, ERK, and S6) signaling [7]	IC50 [8]	responses for all proteins compared to those to ibrutinib ([1]; WT cells)	S727 phosphorylation on STAT3 ([2]; WT and mutant cell lines)	Y705 phosphorylation on STAT3 ([2]; WT and mutant cell lines)	phospho-S6K ([2]; all three cell types, compared to ibrutinib)	cleaved caspase 7 ([2]; all transduced cell lines)	tolerability (B-cell malignancies)
C=CC(=O)N1CCC[C@@H](n2nc(-c3ccc(Oc4ccccc4)cc3)c3c(N)ncnc32)C1 [ibrutinib, reference compound]	2 log	larger decrease	15-20%	did not alter	limited	19%	–	–	–	–	–	–	–	–
CC#CC(=O)N1CCC[C@H]1c1nc(-c2ccc(C(=O)Nc3ccccn3)cc2)c2c(N)nccn12 [acalabrutinib]	–	–	–	–	limited	–	–	–	–	–	–	–	–	–
NC(=O)[C@H]1CCN(c2ncnc(N)c2F)C[C@@H]1N1CCC[C@@H](Nc2cc(Cl)cc(C(F)(F)F)c2)C1=O [vecabrutinib]	2 log	–	15-20%	did not alter	–	–	inhibited	13 ± 6 nM	deeper or similar responses	decreased	decreased	profoundly decreased	increased	well-tolerated
